Reference: patent publication US20240197852A1, “PSORALEN-I[…] G[…] AND METHODS THEREOF” (Wake Forest University Health Sciences, priority 2021, published 2024)

Columns and labels:
E. coli strain H10407 [1] = assay: AMT and UVA crosslinking of E. coli (one round), overnight growth in LB broth; type: cell-based
Method: (§1) Psoralen Inactivation: GC strains were grown overnight on GC agar plates. Overnight growth (between 16 and 18 hours) was resuspended in 5 mls of GCP and OD600 was adjusted to 1.0. Cells were diluted 2:25 in 5 mls GCP supplemented with sodium bicarbonate and Isovitalex and grown at 37 °C in the shaker for 7 hours at which time AMT was added and the cultures were incubated in the shaker for another hour. All bacterial cultures were then moved into 6 well cell culture plates and treated with 1 Joule/cm^2 UV light using an Analytik Jena Crosslinker with UVA light source (365 nm) (model #CL-1000L, Upland, CA). Cultures were returned to tubes and a second dose of AMT was added. Cultures were shaken for 1 hour at 37 °C and then crosslinked again at the same UV dose. Samples were washed in PBS and then plated on GC agar and incubated for two days at 37 °C and 5% CO2 to measure growth as an indication of the presence of residual CFU.
(§2) Early experiments on the effects of different doses of 8-MOP, AMT, and of UV on bacterial cells were done in E. coli strain H10407 due to its relative ease and speed of growth. H10407 was diluted 1:500 in LB and grown for 5 hours at 37 °C in a shaker. Psoralen inactivation was performed as described for GC. Bacterial cells were washed and inoculated into LB broth or plated onto LB agar to measure overnight growth as an indication of the presence of residual CFU.
We then used the psoralen derivative 4-aminomethyl-4,5′, 8-trimethylpsoralen (AMT). Multiple separate cultures of the E. coli strain H10407 were treated with doses of psoralen derivative 4-aminomethyl-4,5′, 8-trimethylpsoralen (AMT) ranging from 0 to 60 μg/ml and treated with 1 Joule/cm^2, 7 Joules/cm^2, or 10 Joules/cm^2 UVA light and then diluted into LB broth and grown overnight. […] Control cultures that received no treatment always grew up overnight as did cultures that only received AMT and no UVA or UVA treatment with no AMT. Heat killed cultures never grew up overnight. […] (See Table 1). Cultures that had no growth were left to grow for 3 more days to make sure that no growth came up later.

GC strain FA1090 [2] = assay: one round of AMT and UV light crosslinking of GC, plating, percent cell survival; type: cell-based, Neisseria gonorrhoeae; details: 1 Joule/cm^2
Method: as §1
(§3) Evaluating the use of a GC uvrB mutants: In order to examine the effect of a mutation in the uvrB locus that affects DNA repair GC strains FA1090 and its derivatives 1-81-S2 (uvrB:kan #4 Opa+) and 1-81-S2 (uvrB:kan #9) were tested. uvrB mutants have been used by other labs to reduce the amount of 8-MOP or S-59 needed to inactivate bacterial cells and to therefore leave them with higher metabolic activity (KBMA). FA1090 and mutant strains were treated with varying doses of AMT, grown for one hour at 37 °C, and then irradiated with UVA at 1 Joule/cm^2. The entire culture was washed and plated onto a single plate. Surviving colonies were counted and compared to live cultures to determine percent cell survival. Multiple cultures of each strain were tested at each dosage level. (see Table 3).

[3] = tested on: FA1090 uvrB mutant strain 1-81-S2 (uvrB:kan #4 Opa+); assay: one round of AMT and UV light crosslinking of GC uvrB mutant, plating, percent cell survival; type: cell-based, Neisseria gonorrhoeae; details: 1 Joule/cm^2
Method: as §1, §3

[4] = tested on: FA1090 uvrB mutant strain 1-81-S2 (uvrB:kan #9); assay: as above; type: cell-based, Neisseria gonorrhoeae; details: 1 Joule/cm^2
Method: as §1, §3

E. coli strain H10407 [5] = assay: two doses of AMT and two rounds of UVA on E. coli, plating for surviving CFU; type: cell-based; details: for CFUs of treated cells / Percent Survival: 1 Joule/cm^2 two times
Method: as §1, §2
The desire was a method to inactivate the culture consistently with AMT. E. coli strain H10407 was treated with AMT and UVA as before, but then immediately retreated the same culture once again with AMT at the same dosage, allowing the culture to shake for 1 hour, and then crosslinking it a second time and plating the cells to see which cultures would still have surviving cells capable of growth. By plating the cells and comparing to the CFUs of an untreated culture we were able to determine a percentage of surviving cells. Multiple cultures were treated at every drug dose. (See Table 2)
Thirty separate 1 ml cultures of H10407 were grown, treated with AMT at a dose of 40 μg/ml two times, and given 1 Joule/cm^2 of UVA two times and allowed to grow overnight on LB plates. […] LB plates were kept for multiple days to ensure there was no later growth.

GC strain FA1090 [6] = assay: two rounds of AMT and UVA on GC, plating on GC agar for survivors; type: cell-based, Neisseria gonorrhoeae; details: thirty 1 ml cultures, approximately 3×10^10 cells; 20 μg/ml AMT and 1 Joule/cm^2 UVA two times
Method: as §1
To get consistent inactivation of GC we treated FA1090 with two rounds of AMT and UVA. Thirty separate 1 ml cultures of FA1090 were given 20 μg/ml AMT and irradiated with 1 Joule/cm^2 UVA two times and plated onto 30 GC agar plates and grown for two days.

E. coli strain H10407 [7] = assay: 8-MOP and UVA crosslinking of E. coli, overnight growth in LB broth; type: cell-based; details: 50, 60, 70, or 80 μg/ml 8-MOP; 1 Joule/cm^2 or 7 Joules/cm^2 UVA
Method: as §2
Inactivation of E. coli with AMT+UVA light: Other labs had previously reported the use of the psoralen derivatives 8-MOP or S-59/psoralen and UVA light to inactivate bacterial cultures containing DNA repair mutations. In order to determine if a bacterial culture not containing a DNA repair mutation with 8-MOP and UVA crosslinking could be inactivated, E. coli strain H10407 was used. Multiple separate cultures of this strain were treated with 50, 60, 70, or 80 μg/ml 8-MOP and treated with 1 Joule/cm^2 or 7 Joules/cm^2 UVA light and then diluted into LB broth and grown overnight. If even one cell in each culture survived the treatment with 8-MOP and UVA, it was expected to see growth in the overnight culture. Control cultures that received UVA but no 8-MOP, 8-MOP but no UVA, and no UVA or 8-MOP were also included. Heat killed cultures were diluted and grown overnight as a negative control.

For Cc1oc2c(C)c3oc(=O)cc(C)c3cc2c1CN [AMT, 4-aminomethyl-4,5′, 8-trimethylpsoralen], which “Percentage of cultures inactivated” value (E. coli strain H10407 [1]; AMT 20 ug/ml, 1 Joule/cm^2) is on record?
Its value is 0%.

What about the “number of cultures inactivated (no overnight growth) / total cultures treated” value (E. coli strain H10407 [1]; AMT 20 ug/ml, 1 Joule/cm^2) of the same molecule?
Its value is 0/5.

And the “Percentage of cultures inactivated” value (E. coli strain H10407 [1]; AMT 20 ug/ml, 7 Joules/cm^2)?
Its value is 67%.

What about the “number of cultures inactivated (no overnight growth) / total cultures treated” value (E. coli strain H10407 [1]; AMT 20 ug/ml, 7 Joules/cm^2) of the same molecule?
The value was 2/3.

What about the “Percentage of cultures inactivated” value (E. coli strain H10407 [1]; AMT 30 ug/ml, 1 Joule/cm^2) of the same molecule?
Its value is 0%.

And the “number of cultures inactivated (no overnight growth) / total cultures treated” value (E. coli strain H10407 [1]; AMT 30 ug/ml, 1 Joule/cm^2)?
Its value is 0/5.

And the “Percentage of cultures inactivated” value (E. coli strain H10407 [1]; AMT 30 ug/ml, 7 Joules/cm^2)?
The value was 33%.

And the “number of cultures inactivated (no overnight growth) / total cultures treated” value (E. coli strain H10407 [1]; AMT 30 ug/ml, 7 Joules/cm^2)?
Its value is 1/3.

What about the “Percentage of cultures inactivated” value (E. coli strain H10407 [1]; AMT 40 ug/ml, 1 Joule/cm^2) of the same molecule?
The value was 60%.

And the “number of cultures inactivated (no overnight growth) / total cultures treated” value (E. coli strain H10407 [1]; AMT 40 ug/ml, 1 Joule/cm^2)?
Its value is 3/5.

What about the “Percentage of cultures inactivated” value (E. coli strain H10407 [1]; AMT 50 ug/ml, 1 Joule/cm^2) of the same molecule?
The value was 82%.

And the “number of cultures inactivated (no overnight growth) / total cultures treated” value (E. coli strain H10407 [1]; AMT 50 ug/ml, 1 Joule/cm^2)?
Its value is 9/11.

And the “Percentage of cultures inactivated” value (E. coli strain H10407 [1]; AMT 50 ug/ml, 7 Joules/cm^2)?
The value was 78%.

What about the “number of cultures inactivated (no overnight growth) / total cultures treated” value (E. coli strain H10407 [1]; AMT 50 ug/ml, 7 Joules/cm^2) of the same molecule?
Its value is 7/9.

And the “Percentage of cultures inactivated” value (E. coli strain H10407 [1]; AMT 50 ug/ml, 10 Joules/cm^2)?
The value was 80%.

And the “number of cultures inactivated (no overnight growth) / total cultures treated” value (E. coli strain H10407 [1]; AMT 50 ug/ml, 10 Joules/cm^2)?
The value was 12/15.

And the “Percentage of cultures inactivated” value (E. coli strain H10407 [1]; AMT 60 ug/ml, 1 Joule/cm^2)?
The value was 80%.

What about the “number of cultures inactivated (no overnight growth) / total cultures treated” value (E. coli strain H10407 [1]; AMT 60 ug/ml, 1 Joule/cm^2) of the same molecule?
Its value is 4/5.

What about the “inactivation of cultures (overnight growth)” value (E. coli strain H10407 [1]; AMT up to 60 μg/ml, 1, 7 or 10 Joules/cm^2 UVA, one round) of the same molecule?
The value was “sometimes completely inactivated”.

And the “Percent Cell Survival” value (GC strain FA1090 [2]; AMT 2 ug/ml)?
The value was 7.85 × 10^−6%.

And the “Percent Cell Survival” value (GC strain FA1090 [2]; AMT 5 ug/ml)?
Its value is 1.23 × 10^−6%.

And the “Percent Cell Survival” value (GC strain FA1090 [2]; AMT 7 ug/ml)?
The value was 0%.

And the “Percent Cell Survival” value (GC strain FA1090 [2]; AMT 10 ug/ml)?
The value was 0%.

What about the “Percent Cell Survival” value (GC strain FA1090 [2]; AMT 30 ug/ml) of the same molecule?
Its value is 0%.

And the “Percent Cell Survival” value (GC strain FA1090 [2]; AMT 50 ug/ml)?
The value was 0%.

What about the “Percent Cell Survival” value (GC strain FA1090 [2]; AMT 70 ug/ml) of the same molecule?
The value was 2.56 × 10^−7%.

What about the “Percent Cell Survival” value (GC strain FA1090 [2]; AMT 100 ug/ml) of the same molecule?
Its value is 0%.

What about the “Percent Cell Survival” value ([3]; AMT 2 ug/ml) of the same molecule?
The value was 5.56 × 10^−8%.

What about the “Percent Cell Survival” value ([3]; AMT 5 ug/ml) of the same molecule?
Its value is 0%.

And the “Percent Cell Survival” value ([3]; AMT 7 ug/ml)?
The value was 0%.

What about the “Percent Cell Survival” value ([3]; AMT 10 ug/ml) of the same molecule?
Its value is 0%.

And the “Percent Cell Survival” value ([3]; AMT 30 ug/ml)?
The value was 0%.

And the “Percent Cell Survival” value ([3]; AMT 50 ug/ml)?
The value was 0%.

What about the “Percent Cell Survival” value ([3]; AMT 70 ug/ml) of the same molecule?
The value was 1.11 × 10^−6%.

What about the “Percent Cell Survival” value ([3]; AMT 100 ug/ml) of the same molecule?
The value was 0%.

And the “Percent Cell Survival” value ([4]; AMT 2 ug/ml)?
Its value is 7.23 × 10^−7%.

What about the “Percent Cell Survival” value ([4]; AMT 5 ug/ml) of the same molecule?
Its value is 4.0 × 10^−7%.

What about the “Percent Cell Survival” value ([4]; AMT 7 ug/ml) of the same molecule?
The value was 6.3 × 10^−8%.

And the “Percent Cell Survival” value ([4]; AMT 10 ug/ml)?
The value was 0%.

And the “Percent Cell Survival” value ([4]; AMT 30 ug/ml)?
The value was 0%.

What about the “Percent Cell Survival” value ([4]; AMT 50 ug/ml) of the same molecule?
Its value is 0%.

And the “Percent Cell Survival” value ([4]; AMT 70 ug/ml)?
Its value is 0%.

And the “Percent Cell Survival” value ([4]; AMT 100 ug/ml)?
The value was 0%.

What about the “CFUs of treated cells” value (E. coli strain H10407 [5]; AMT 10 ug/ml two doses) of the same molecule?
Its value is 79.

And the “Percent Survival” value (E. coli strain H10407 [5]; AMT 10 ug/ml two doses)?
Its value is 2.6 × 10^−6%.

And the “CFUs of treated cells” value (E. coli strain H10407 [5]; AMT 30 ug/ml two doses)?
Its value is 2.

And the “Percent Survival” value (E. coli strain H10407 [5]; AMT 30 ug/ml two doses)?
Its value is 5 × 10^−8%.

What about the “CFUs of treated cells” value (E. coli strain H10407 [5]; AMT 35 ug/ml two doses) of the same molecule?
The value was 55.

And the “Percent Survival” value (E. coli strain H10407 [5]; AMT 35 ug/ml two doses)?
The value was 6.1 × 10^−7%.

And the “CFUs of treated cells” value (E. coli strain H10407 [5]; AMT 40 ug/ml two doses)?
Its value is 0.

And the “Percent Survival” value (E. coli strain H10407 [5]; AMT 40 ug/ml two doses)?
Its value is 0%.

What about the “surviving cells capable of growth” value (E. coli strain H10407 [5]; thirty 1 ml cultures, approximately 3.7×10^10 cells, 40 μg/ml AMT and 1 Joule/cm^2 UV two times) of the same molecule?
Its value is “no cells still capable of growth”.

And the “survivors after plating on GC agar, two days” value (GC strain FA1090 [6])?
The value was “No survivors were detected”.

With COc1c2occc2cc2ccc(=O)oc12 [8-MOP, 8-methoxypsoralen] as the molecule, how does the “inactivation of cultures (overnight growth)” value (E. coli strain H10407 [7]) read?
Its value is “not inactivated”.
